Laboratory results taken from BindingDB's records for PubMed 35777269 (University of Maryland, 2022).

Target: Protein Wnt-3a (Human, UniProt P56704)
Assay: Inhibition of recombinant human Wnt3a in HEK293 cells assessed as Wnt signalling by measuring reduction in relative luminescence units incubated for 24 hrs by luciferase reporter assay

Sequence of Protein Wnt-3a (P56704 whole entry): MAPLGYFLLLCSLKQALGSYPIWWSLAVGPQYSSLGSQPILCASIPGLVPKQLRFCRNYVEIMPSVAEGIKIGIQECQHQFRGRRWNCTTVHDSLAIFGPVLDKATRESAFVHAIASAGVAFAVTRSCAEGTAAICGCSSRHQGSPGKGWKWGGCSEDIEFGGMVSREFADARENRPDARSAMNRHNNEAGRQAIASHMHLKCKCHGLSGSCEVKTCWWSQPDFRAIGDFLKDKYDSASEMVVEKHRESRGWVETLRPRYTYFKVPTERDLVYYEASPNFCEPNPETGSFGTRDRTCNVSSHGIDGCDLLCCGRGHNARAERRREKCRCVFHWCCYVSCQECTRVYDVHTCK

IC50: 4.1 nM
Compound: Cc1ccccc1-n1nnc(C(=O)Nc2ccc3ccccc3n2)c1C
